Results taken from US20070105864A1, “Methods for inhibiting protein kinases” (Schering Corporation, priority 2005, published 2007).

Key:
[1] = target: T1, Cyclin E/CDK2 (Homo sapiens, UniProt P24941); test: CDK2 Assay (Cyclin E/CDK2 in vitro kinase assay); format: biochemical; details: read-out: CDK2 IC50
T1 construct: made in house; host or cells: SF9 cells (baculovirus co-infection)
From the text: BACULOVIRUS CONSTRUCTIONS: Cyclin E was cloned into pVL1393 (Pharmingen, La Jolla, Calif.) by PCR, with the addition of 5 histidine residues at the amino-terminal end to allow purification on nickel resin. The expressed protein was approximately 45 kDa. CDK2 was cloned into pVL1393 by PCR, with the addition of a haemaglutinin epitope tag at the carboxy-terminal end (YDVPDYAS). The expressed protein was approximately 34 kDa in size.
ENZYME PRODUCTION: Recombinant baculoviruses expressing cyclin E and CDK2 were co-infected into SF9 cells at an equal multiplicity of infection (MOI=5), for 48 hrs. Cells were harvested by centrifugation at 1000 RPM for 10 minutes, then pellets lysed on ice for 30 minutes in five times the pellet volume of lysis buffer containing 50 mM Tris pH 8.0, 1 50 mM NaCl, 1% NP40, 1 mM DTT and protease inhibitors (Roche Diagnostics GmbH, Mannheim, Germany). Lysates were spun down at 15000 RPM for 10 minutes and the supernatant retained. 5 ml of nickel beads (for one liter of SF9 cells) were washed three times in lysis buffer (Qiagen GmbH, Germany). Imidazole was added to the baculovirus supernatant to a final concentration of 20 mM, then incubated with the nickel beads for 45 minutes at 4° C. Proteins were eluted with lysis buffer containing 250 mM imidazole. Eluate was dialyzed overnight in 2 liters of kinase buffer containing 50 mM Tris pH 8.0, 1 mM DTT, 10 mM MgCl2, 100 uM sodium orthovanadate and 20% glycerol. Enzyme was stored in aliquots at −70° C.
IN VITRO KINASE ASSAY: Cyclin E/CDK2 kinase assays were performed in low protein binding 96-well plates (Corning Inc, Corning, N.Y.). Enzyme was diluted to a final concentration of 50 μg/ml in kinase buffer containing 50 mM Tris pH 8.0, 10 mM MgCl2, 1 mM DTT, and 0.1 mM sodium orthovanadate. The substrate used in these reactions was a biotinylated peptide derived from Histone H1 (from Amersham, UK). The substrate was thawed on ice and diluted to 2 μM in kinase buffer. Compounds were diluted in 10% DMSO to desirable concentrations. For each kinase reaction, 20 μl of the 50 µg/ml enzyme solution (1 μg of enzyme) and 20 μl of the 2 μM substrate solution were mixed, then combined with 10 μl of diluted compound in each well for testing. The kinase reaction was started by addition of 50 μl of 2 μM ATP and 0.1 μCi of 33P-ATP (from Amersham, UK). The reaction was allowed to run for 1 hour at room temperature. The reaction was stopped by adding 200 μl of stop buffer containing 0.1% Triton X-100, 1 mM ATP, 5 mM EDTA, and 5 mg/ml streptavidine coated SPA beads (from Amersham, UK) for 15 minutes. The SPA beads were then captured onto a 96-well GF/B filter plate (Packard/Perkin Elmer Life Sciences) using a Filtermate universal harvester (Packard/Perkin Elmer Life Sciences.). Non-specific signals were eliminated by washing the beads twice with 2M NaCl then twice with 2 M NaCl with 1% phosphoric acid. The radioactive signal was then measured using a TopCount 96 well liquid scintillation counter (from Packard/Perkin Elmer Life Sciences).
(§1) IC50 DETERMINATIONS: Dose-response curves were plotted from inhibition data generated, each in duplicate, from 8 point serial dilutions of inhibitory compounds. Concentration of compound was plotted against % kinase activity, calculated by CPM of treated samples divided by CPM of untreated samples. To generate IC50 values, the dose-response curves were then fitted to a standard sigmoidal curve and IC50 values were derived by nonlinear regression analysis.

[2] = target: T2, recombinant His-CHK1 (Homo sapiens, UniProt O14757); test: CHK1 SPA Assay; format: biochemical; details: read-out: CHK-1 IC50
T2 construct: His-CHK1, In House Lot P976, MW ˜30 KDa, stored at −80 °C; fused on or other part: His tag
T2 sequence (O14757 1-265 limits assumed): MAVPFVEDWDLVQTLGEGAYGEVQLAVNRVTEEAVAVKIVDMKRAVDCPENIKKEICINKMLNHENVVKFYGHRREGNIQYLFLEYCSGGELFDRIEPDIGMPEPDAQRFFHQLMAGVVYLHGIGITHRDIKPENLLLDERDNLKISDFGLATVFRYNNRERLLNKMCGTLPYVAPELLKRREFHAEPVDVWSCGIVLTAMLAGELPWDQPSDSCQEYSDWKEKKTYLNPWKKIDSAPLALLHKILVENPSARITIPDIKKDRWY
Description: An in vitro assay was developed that utilizes recombinant His-CHK1 expressed in the baculovirus expression system as an enzyme source and a biotinylated peptide based on CDC25C as substrate (biotin-[…]).
1) CDC25C Ser 216 C-term Biotinylated peptide substrate (25 mg), stored at −20 °C, Custom Synthesis by Research Genetics: biotin-[…] 2595.4 MW
2) His-CHK1 In House lot P976, 235 ug/mL, stored at −80 °C.
1) Kinase Buffer: 50 mM Tris pH 8.0; 10 mM MgCl2; 1 mM DTT
2) His-CHK1, In House Lot P976, MW ˜30 KDa, stored at −80 °C. […] For 1 plate (100 r×n): dilute 8 μL of 235 μg/mL (7.83 uM) stock in 2 mL Kinase Buffer. This makes a 31 nM mixture. Add 20 μL/well. This makes a final reaction concentration of 6 nM.
3) CDC25C Biotinylated peptide.
Dilute CDC25C to 1 mg/mL (385 uM) stock and store at −20° C. For 1 plate (100 r×n): dilute 10 1L of 1 mg/mL peptide stock in 2 ml Kinase Buffer. This gives a 1.925 μM mix. Add 20 1L/r×n. This makes a final reaction concentration of 385 nM.
For 1 plate (100 r×n): dilute 10 μL of 1 mM ATP (cold) stock and 2 uL fresh P33-ATP (20 μCi) in 5 ml Kinase Buffer. This gives a 2 μM ATP (cold) solution; add 50 μl/well to start the reaction. Final volume is 100 μl/r×n so the final reaction concentrations will be 1 μM ATP (cold) and 0.2 uCi/r×n.
For 1 plate add: To 10 mL Wash Buffer 2 (2M NaCl 1% H3PO4): 1 mL SPA bead slurry (50 mg); Add 100 μL/well
6) Wash buffer 1: 2 M NaCl
7) Wash buffer 2: 2 M NaCl, 1% H3PO4
Dispense 10 μl/r×n to appropriate wells. Add 10 μL 10% DMSO to positive (CHK1+CDC25C+ATP) and negative (CHK1+ATP only) control wells. 2) Thaw enzyme on ice—dilute enzyme to proper concentration in kinase buffer (see Reaction Mixtures) and dispense 20 μl to each well. 3) Thaw the Biotinylated substrate on ice and dilute in kinase buffer (see Reaction Mixtures). Add 20 μL/well except to negative control wells. Instead, add 20 uL Kinase Buffer to these wells. 4) Dilute ATP (cold) and P33-ATP in kinase buffer (see Reaction Mixtures). Add 50 μL/well to start the reaction. 5) Allow the reaction to run for 2 hours at room temperature. 6) Stop reaction by adding 100 uL of the SPA beads/stop solution (see Reaction Mixtures) and leave to incubate for 15 minutes before harvest 7) Place a blank Packard GF/B filter plate into the vacuum filter device (Packard plate harvester) and aspirate […] water through to wet the system. 8) Take out the blank and put in the Packard GF/B filter plate. 9) Aspirate the reaction through the filter plate. 10) Wash: 200 ml each wash; 1× with 2M NaCl; 1× with 2M NaCl/1% H3PO4 11) Allow filter plate to dry 15 min. 12) Put TopSeal-A adhesive on top of filter plate. 13) Run filter plate in Top Count
Settings: • Data mode: CPM • Radio nuclide: Manual SPA:P33 • Scintillator: Liq/plast • Energy Range: Low
as §1

SMILES | IC50 [1] | IC50 [2]
Cc1cnsc1Nc1nc(CCCN)cn2c(-c3cnn(C)c3)cnc12 | 1910 nM | 5 nM
Cc1cc(Nc2nc(CC3CCNC3)cn3c(-c4cnn(C)c4)cnc23)sc1S(=O)(=O)N(C)C (stereo not drawn) | 983 nM | 8 nM
Cc1cc(Nc2nc(C3=CCCNC3)cn3c(-c4cnn(C)c4)cnc23)sc1S(=O)(=O)NCC1CC1 | 2140 nM | 8 nM
Cc1cc(Nc2nc(C3=CCCNC3)cn3c(-c4cnn(C)c4)cnc23)sc1S(C)(=O)=O | 11600 nM | 8 nM
Cn1cc(-c2cnc3c(Nc4sncc4C(C)(C)C)nc(C4=CCCNC4)cn23)cn1 | 13700 nM | 16 nM
CC(C)c1cnsc1Nc1nc(C2=CCCNC2)cn2c(-c3cnn(C)c3)cnc12 | 4210 nM | 6 nM
Cc1ncc(Nc2nc(C3=CCCNC3)cn3c(-c4cnn(C)c4)cnc23)s1 | 4630 nM | 8 nM
Cc1cc(Nc2nc(C3=CCCNC3)cn3c(-c4cnn(C)c4)cnc23)sc1S(=O)(=O)NC1CC1 [drawing 1469] | 1580 nM | 3 nM
Cc1cc(Nc2nc(CCN)cn3c(-c4cnn(C)c4)cnc23)sc1C(N)=O | 17900 nM | 19 nM
